# Data reported in patent US20050228041A1, “Protective and therapeutic uses for tocotrienols” (priority 2003, published 2005).
# Entries after “also recorded” stand apart in the source; their conditions may differ.
# Key:
# [1] = tested on: HT4 neurons; assay: Glutamate-induced death of HT4 neurons (propidium iodide exclusion flow cytometry, cell counts); format: cell-based, mouse
# Protocol: (§1) Referring to FIG. 1, primary rat immature cortical neurons (A-C) or HT4 (D) were either treated or not with α-tocotrienol (as indicated) for 5 min and challenged with either glutamate (10 mM; A); L-homocysteic acid (1 mM; B); or buthionine sulfoximine (0.15 mM; BSO) for 24 h. […] Cells were counted at 12, 24 and 36 h after glutamate challenge.
# (§2) First, we tested for the involvement of 12-LOX in the execution of glutamate-induced death in our model. We started by using the 12-LOX specific inhibitor baicalein or BL15. Referring to FIG. 3, HT4 neurons (A) were either treated or not with a-tocotrienol (250 nM) or […] (2.5 μM, 12-lipoxygenase inhibitor) for 5 min and then challenged with glutamate (10 mM). Cell viability was determined using propidium iodide (PI) exclusion flow cytometry assay. PI−=live; PI+=dead. Rat primary immature cortical neurons (B-D) were either treated or not with α-tocotrienol (100 nM) or BL15 (2.5 μM) for 5 min and challenged either with glutamate (10 mM; B); L-homocysteic acid (1 mM; C) or buthionine sulfoximine (0.15 mM; BSO; D) for 24 h. Arachidonic acid, 50 μM for 24h. BL15, Baicalein 5,6,7-trihydroxy-flavone.
# (§3) Cell culture. Mouse hippocampal HT4 cells, were grown in Dulbecco's Modified Eagle Medium supplemented with 10% fetal calf serum, penicillin (100 U/ml) and streptomycin (100 μg/ml) at 37° C. in a humidified atmosphere containing 95% air and 5% CO2. HT4 cells were provided by Dr. D. E. Koshland Jr. (University of California at Berkeley) (Sen et al., 2000). Primary cortical neurons. Cells were isolated from the cerebral cortex of rat feti (Sprague Dawley; day 17 of gestation) or mouse feti (C57BL/6 mice, day 14 of gestation) as described (Murphy et al., 1990). For 12-LOX knockout studies, neurons were isolated from the feti of B6.129S2-Alox15^tm1Fun (Jackson Laboratory, […].). After isolation from the brain, cells were counted and seeded in culture plates at a density of 2-3×10^6 cells per 35 mm plate (Murphy et al., 1990). Cells were grown in Minimal Essential Medium (MEM) supplemented with 10% heat-inactivated fetal bovine serum, 40 μM cystine and antibiotics (100 μg/ml streptomycin, 100 units/ml penicillin, 0.25 μg/ml amphotericin). Cultures were maintained at 37° C. in 5% CO2 and 95% air in a humidified incubator. All experiments were carried out 24 h after plating.
# (§4) Treatment with neurotoxic agents. Immediately before experiments, culture media was replaced with fresh medium supplemented with serum and antibiotics. Glutamate (10 mM) was added to the media as aqueous solution (Han et al., 1997a; Sen et al., 2000; Tirosh et al., 2000). […] Other agents used to induce death in neuronal cells have been described in the pertinent figure legends.
# (§5) Vitamin E treatment. Stock solutions (10^3X of working concentration) of α-tocotrienol was prepared in ethanol. […]
# (§6) Determination of cell viability. Viability of HT4 cells was determined using propidium iodide exclusion assay using the flow cytometer as described by us previously (Sen et al., 2000; Tirosh et al., 2000). Because primary neuronal cultures tend to aggregate during flow cytometry, the viability of these cells was assessed by measuring lactate dehydrogenase (LDH) leakage (Han et al., 1997a) from cells to media 24 h following glutamate treatment using in vitro toxicology assay kit from Sigma Chemical Co. (St. Louis, Mo., USA). […]
# [2] = tested on: rat primary cortical neurons; assay: Imaging of glutamate-induced degeneration of rat primary cortical neurons (immunofluorescence, live cell imaging); format: cell-based; details: glutamate 10 mM; α-tocotrienol 250 nM or BL15 2.5 μM 5 min before
# Protocol: Phase contrast images were collected once every 15 mins for 18 h from 8 h after glutamate treatment.
# For immunofluorescence microscopy, primary cultures of rat cortical neurons were plated on 35 mm plates pre-coated with poly-L-lysine. After 24 h, cell were treated with α-tocotrienol or BL15 for 5 minutes and then challenged with glutamate or exposed to glutamate. After 24 h of glutamate exposure, cells were washed thrice in PBS, fixed for 10 minutes at room temperature in 4% paraformaldehyde, and permeabilized with PBS-T (PBS containing 0.2% Triton X-100) for 20 minutes at room temperature. Samples were then rinsed 3× with PBS-T and blocking (2% BSA in PBS-T) was done for 1 h at room temperature. After blocking, samples were incubated overnight at 4° C. with the primary antibody (anti-neurofilament 200 (1:100, Sigma St. Louis, Mo.) or neuronal class III α-tubulin (1:500, Covance Berkeley, Calif.)}. After washing with PBS (3×, 5 min each), the samples were incubated with Alexa Fluor 488 conjugated goat anti-mouse or anti-rabbit (Molecular Probes Eugene, Oreg.) secondary antibody for 45 minutes at room temperature. This was followed by three PBS washes, and mounting in aqueous medium. Fluorescent images were collected using a Zeiss Axiovert 200M microscope. Images were acquired using Axiovision 3.1.
# For live cell imaging, primary cultures of rat cortical neurons were plated on 35 mm plates pre-coated with poly-L-lysine. […] Images were collected once every 15 minutes using a specialized phase contrast Zeiss optics suited for imaging cells growing in routine culture plates.
# [3] = tested on: primary neurons; assay: Cellular glutathione (GSH) in glutamate-treated primary neurons (HPLC-coulometric); format: cell-based, rat; details: glutamate 10 mM; α-tocotrienol 100 nM or BL15 2.5 μM
# Protocol: as §2, with “5,6,7-trihydroxy-flavone. […] B-E: †, lower compared to the corresponding control non-treated group; *, higher compared to the corresponding toxin-treated group. P<0.05.” for “5,6,7-trihydroxy-flavone.”
# Glutathione assay. Glutathione (GSH) was detected using a HPLC-coulometric electrode array detector (Coularray Detector—model 5600 with 12 channels; ESA Inc., Chelmsford, Mass.). […] Glutathione was detected at channels set at following potentials: I) 600 mV, II) 700 mV; and II) 800 mV. Signals from channel set at 800 mV were used for quantification (Sen et al., 2002).
# [4] = tested on: primary rat immature cortical neurons; assay: Neurotoxin-induced loss of viability of primary immature cortical neurons (LDH leakage); format: cell-based; details: 24 h
# Protocol: as §1, §2, §3, §4, §5, §6
# [5] = tested on: TTP knock-out mice; assay: Fertility of tocopherol transport protein (TTP) knock-out mice; details: mouse, in vivo
# Text: The uptake and transport of dietary or pharmaceutically supplemented tocopherol from the gut to various parts of the body is directed by TTP. In order to understand and distinguish the important roles of tocopherols and tocotrienols in mammals, knock out mice have been produced in which expression of TTP has been ablated. Interruption of TTP results in loss of fertility in these mice which make it impossible to breed and thus maintain the line for further study.
# [6] = tested on: primary cardiac fibroblatsts (CF) isolated from adult mouse ventricle; assay: Cardiac fibroblast death induced by arachidonic acid + buthionine sulfoximine (phase contrast imaging); format: cell-based; details: arachidonic acid 50 microM + BSO, 250 nM tocotrienol, 24 h, 5% O2
# Protocol: Assays were performed using primary cardiac fibroblatsts (CF) isolated from adult (5-6 week old) mouse ventricle. Cells were cultured under 5% O2 conditions. Five days after isolation cells were treated with arachidonic acid (50 microM)+buthionine sulfoximine in the presence or absence of 250 nM tocotrienol for 24h. Phase contrast imaging was performed using a Zeiss live cell imaging microscope.
# Referring to FIG. 8, isolated cardiac fibroblasts cells were treated five days after isolation with arachidonic acid (AA)(50 microM)±buthionine sulfoximine (BS)) in the presence or absence of 250 nM tocotrienol (T3) for 24 hours. Phase contrast imaging was performed using a Zeiss live cell imaging microscope.
# [7] = target: T1, hydroxy-3 methylglutaryl coenzyme A reductase (Homo sapiens, UniProt P04035); details: micromolar amounts; Pearce et al.; cited from earlier work
# T1 sequence (P04035 1-888): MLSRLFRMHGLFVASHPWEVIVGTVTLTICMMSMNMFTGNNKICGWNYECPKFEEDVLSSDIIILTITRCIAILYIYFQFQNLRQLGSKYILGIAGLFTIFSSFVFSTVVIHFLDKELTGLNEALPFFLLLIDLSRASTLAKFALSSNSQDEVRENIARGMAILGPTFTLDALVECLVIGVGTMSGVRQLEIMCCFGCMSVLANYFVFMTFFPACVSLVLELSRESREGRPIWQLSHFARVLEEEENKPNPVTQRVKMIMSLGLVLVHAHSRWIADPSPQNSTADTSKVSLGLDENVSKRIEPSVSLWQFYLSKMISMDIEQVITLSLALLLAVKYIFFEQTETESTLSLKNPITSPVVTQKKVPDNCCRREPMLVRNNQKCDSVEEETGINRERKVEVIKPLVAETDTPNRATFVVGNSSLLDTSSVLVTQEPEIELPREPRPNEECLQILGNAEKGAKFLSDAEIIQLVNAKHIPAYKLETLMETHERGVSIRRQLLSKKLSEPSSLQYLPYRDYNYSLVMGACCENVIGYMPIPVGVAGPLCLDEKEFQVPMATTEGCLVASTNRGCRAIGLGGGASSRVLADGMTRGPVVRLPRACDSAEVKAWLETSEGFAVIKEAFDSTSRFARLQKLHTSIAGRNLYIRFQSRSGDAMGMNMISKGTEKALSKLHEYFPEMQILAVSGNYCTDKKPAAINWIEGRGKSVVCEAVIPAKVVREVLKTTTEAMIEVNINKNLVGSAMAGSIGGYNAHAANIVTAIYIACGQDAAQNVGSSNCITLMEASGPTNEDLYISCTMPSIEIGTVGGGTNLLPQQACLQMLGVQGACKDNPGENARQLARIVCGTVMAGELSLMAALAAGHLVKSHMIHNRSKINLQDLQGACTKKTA
# [8] = target: T2, alphaTTP (Rattus norvegicus, UniProt P41034); details: competition with alpha-[3H]tocopherol; FEBS Lett 1997; cited from earlier work
# T2 sequence (P41034 1-278): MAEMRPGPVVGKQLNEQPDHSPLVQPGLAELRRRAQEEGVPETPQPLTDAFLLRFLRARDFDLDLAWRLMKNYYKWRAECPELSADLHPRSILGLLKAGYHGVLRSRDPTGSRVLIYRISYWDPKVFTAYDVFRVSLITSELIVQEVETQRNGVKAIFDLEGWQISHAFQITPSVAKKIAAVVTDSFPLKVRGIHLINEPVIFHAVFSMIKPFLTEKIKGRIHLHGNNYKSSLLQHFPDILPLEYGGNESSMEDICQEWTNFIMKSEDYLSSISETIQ
Compound,"protection against glutamate induced death of HT4 cells ([1]; glutamate 10 mM, BL15 2.5 μM 5 min before)",glutamate-induced degeneration of the neural network and neuronal growth [2],cellular glutathione (GSH) in protected glutamate-treated primary neurons [3],"protection of primary neurons against toxicity triggered by L-homocysteic acid or BSO ([4]; L-homocysteic acid 1 mM or BSO 0.15 mM, BL15 2.5 μM 5 min before)","protection against glutamate-induced death of primary neurons ([4]; glutamate 10 mM, α-tocotrienol 100 nM or BL15 2.5 μM 5 min before)","protection against glutamate-induced toxicity / loss of cell viability of HT4 ([1]; glutamate 10 mM, tocotrienol 100 nM (nM levels) 5 min before)","proliferation / growth rate of glutamate-treated HT4 cells ([1]; tocotrienol 100 nM (nM levels), cells counted 12, 24 and 36 h after glutamate)",fertility of TTP knock-out mice [5],cell death induced by AA+BSO [6],activity of hydroxy-3 methylglutaryl coenzyme A reductase [7],relative affinity of alpha TTP [8]
"O=c1cc(-c2ccccc2)oc2cc(O)c(O)c(O)c12 [BL15, 5,6,7-trihydroxy-flavone, reference compound]",clearly protected,protection,loss of cellular glutathione; also recorded: lowered GSH levels,protected,protected neurons against glutamate challenge; also recorded: clearly protected,,,,,,
tocotrienol,,,,,,prevented glutamate-induced toxicity,proliferate at a rate comparable to cells not treated with glutamate,reversal of TTP-dependent infertility,completely blocked cell death,suppress the activity,relatively low affinity
